Key:
[1] = molecular target: T1, mTSPO (recombinant mouse translocator protein) (Mus musculus, UniProt P50637); experiment: […] NMR chemical shift titration; format: binding
[2] = molecular target: T1, mTSPO (recombinant mouse translocator protein); experiment: […] NMR competition with RF3458; format: binding

Compound	Kd [1] [µM]	Ki [2] [µM]
CN(C(=O)[C@H](Cc1ccc(F)cc1)NC(=O)c1ccccc1)c1ccccc1 [4b, RF3458]	~5	–
CC[C@@H](C)N(C)C(=O)c1cc2ccccc2c(-c2ccccc2Cl)n1 [(R)-PK 11195, 1-(2-Chlorophenyl)-N-methyl-N-(1-methylpropyl)-3-isoquinolinecarboxamide]	–	~90
